Assay results as given in publication PMC3503517 (Chembiochem : a European journal of chemical biology, 2011).
Like-named read-outs stand apart in the source and are kept apart here.

Assays:
human DCTPP1 [1] = target: T1, human DCTPP1 (Homo sapiens, UniProt Q9H773); assay type: biochemical
T1 sequence (Q9H773 1-170): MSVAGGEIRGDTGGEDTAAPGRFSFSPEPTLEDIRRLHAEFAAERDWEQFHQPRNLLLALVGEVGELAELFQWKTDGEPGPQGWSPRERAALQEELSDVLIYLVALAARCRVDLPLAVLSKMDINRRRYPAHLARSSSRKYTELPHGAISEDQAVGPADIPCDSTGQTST

HeLa cells [2] = experiment: BrdC/BrdCTP incorporation into DNA detected with anti-BrdU antibody; assay type: cell-based, human; details: one-hour treatment
HeLa cells [3] = experiment: Cytotoxicity; assay type: cell-based; details: Homo sapiens, 48 h, read-out: IC50 (cell number)
human DCTPP1 [4] = target: T1, human DCTPP1; details: ITC, 25°C, value ± SD
native gel or EMSA + SEC = target: the molecule itself; experiment: native gel or EMSA + SEC

Nc1nc(=O)n([C@H]2C[C@H](O)[C@@H](COP(=O)(O)OP(=O)(O)OP(=O)(O)O)O2)cc1I [5-I-dCTP]
Km (human DCTPP1 [1]; as substrate of DCTPP1): 239 µM | kcat (human DCTPP1 [1]; as substrate of DCTPP1): 0.000864 s⁻¹

Nc1nc(=O)n([C@H]2C[C@H](O)[C@@H](COP(=O)(O)OP(=O)(O)OP(=O)(O)O)O2)cc1Br [BrdCTP]
BrdU incorporation (fraction of anti-BrdU reactive cells) (HeLa cells [2]): 30–43 % of cells

Nc1nc(=O)n([C@H]2C[C@H](O)[C@@H](CO)O2)cc1Br [BrdC]
BrdU incorporation (fraction of anti-BrdU reactive cells) (HeLa cells [2]): 30–43 % of cells

CC(C)[C@]12O[C@H]1[C@@H]1O[C@]13[C@]1(O[C@H]1C[C@H]1C4=C(CC[C@@]13C)C(=O)OC4)[C@@H]2O [compound 1, triptolide]
IC50 (HeLa cells [3]): 7 to 10 nM | ΔH (human DCTPP1 [4]): -19.98 ± 1.70 kcal/mol | ΔH (human DCTPP1 [4]; listed as triptolide): –19.98 ± 1.70 kcal/mol | n (binding stoichiometry) (human DCTPP1 [4]; per DCTPP1 monomer): 0.601 ± 0.075

Nc1ccn([C@@H]2O[C@H](COP(=O)(O)OP(=O)(O)OP(=O)(O)O)[C@@H](O)C2(F)F)c(=O)n1 [gemcitabine triphosphate]
activity as a DCTPP1 substrate (human DCTPP1 [1]; kinetic assays, data not shown): did not show activity as a DCTPP1 substrate

B1: recombinant human dCTP pyrophosphatase 1 (DCTPP1), GST tag cleaved off (enzyme, UniProt Q9H773 1-170, looked up)
chain: T1 sequence (Q9H773 1-170)
stoichiometry N (native gel or EMSA + SEC): 2
